# From patent US20210361680A1, “INOSITOL-BASED IMMUNOTHERAPIES” (NormOxys, Inc., priority 2018, published 2021)
# Entries after “also recorded” stand apart in the source; their conditions may differ.
# How the values were obtained:
# [1] = system: B16F10 melanoma cells; experiment: Tumor growth of B16F10 melanoma in C57BL6 mice under ITPP treatment; format: in vivo, mouse; settings: day 23
# Protocol: (§1) Murine B16F10 cells were implanted in C57BL6 or on Rj:NMRI-nu nude mice leg subcutaneously by injecting a plug of 10^5 cells in 100 μl Matrigel (BD Biosciences).
# (§2) Murine B16F10 cells were implanted in C57BL6 or on Rj:NMRI-nu nude mice leg subcutaneously as we described previously by injecting a spheroid plug of 10^5 cells in 100 μl Matrigel (BD Biosciences).
# (§3) ITPP was injected intraperitoneally (1.5 g/kg: in saline) twice a week over 3 weeks. It was started on day7 and repeated on day 8 post tumor inoculation (day 0). The following serial treatments were applied on days 15 and 16, 21 and 22. Tumors were extracted and weighted at the indicated times.
# [2] = system: immune cells (CD45+); experiment: Flow cytometry of CD45+ immune cells in B16F10Luc tumors; format: in vivo, mouse; settings: ITPP-treated versus control mice
# Protocol: as §2, §3
# (§4) Tumor samples were immediately transferred in to PBS on ice. Biopsies were cut into small pieces and filtered through cell strainer after being dissociated by collagenase/dispase (Gibco). The samples were depleted of erythrocytes by red blood lysis buffer (eBiosciences).
# (§5) Single cell suspensions were stained with mAbs for 1 h at 4° C. Acquisition was performed by one to four color flow cytometry using FACS LSR (Becton Dickinson). Dead cells were excluded on scatter profile. Data were acquired using CellQuest software (Becton Dickinson) on at least 100,000 events. Data were expressed as dot plot or histogram when comparison of fluorescence intensity is needed.
# (§6) The following directly conjugated rat anti-mouse mAbs were used for the FACS staining: CD45-PerCP, CD11b-APC, CCR4-PE, CCR5-PE, CCR7-PE, CCR1O-PE and CXCR4-PE were from BD Biosciences. CD49b-APC was from Biolegend. […]
# [3] = in vivo; cited from earlier work
# [4] = system: CXCR4; experiment: Flow cytometry of CXCR4 expression in the tumor site; format: in vivo, mouse
# Protocol: as §2, §3, §4
# (§7) In specified experiments, tumors were depleted from CD45+ and/or CD31+ cells by magnetic separation (Easy Sep magnet, StemCell Technologies Inc).
# as §5
# (§8) The following directly conjugated rat anti-mouse mAbs were used for the FACS staining: CD45-PerCP, CD11b-APC, CCR4-PE, CCR5-PE, CCR7-PE, CCR1O-PE and CXCR4-PE were from BD Biosciences. CD49b-APC was from Biolegend. CD226-PE, CD4-FITC, CD25-APC, CD8a-FITC, PD-1-PE, CTLA-4-PE, PDL1-PE-Cy7, PDL2-FITC and CD47-APC were from eBiosciences. CD11c-FITC and GR1-FITC were from Milteny. CD206 was from Santa Cruz. We used anti-mouse Foxp3 staining set PE (eBioscience) for Foxp3 staining.
# [5] = system: Treg cells; experiment: Flow cytometry of Treg cells in 4T1 mammary carcinoma; format: in vivo, mouse; settings: 4T1 mammary carcinoma bearing BalbC mice
# Protocol: (§9) 4T1murine mammary carcinoma (10^4 cells as spheroid plug in Matrigel) cells were injected in the mammary fat pad of BALBc/by mice.
# as §3, §4, §5, §6
# [6] = system: CCR7; experiment: Flow cytometry of CCR7 expression in the tumor site; format: in vivo, mouse; settings: tumor cells
# Protocol: as §2, §3, §4, §7
# as §5, with “needed. […]” for “needed.”
# [7] = system: 4T1 mammary carcinoma; experiment: Tumor growth of 4T1 mammary carcinoma in BALB/c-by mice under ITPP treatment; format: in vivo, mouse
# Protocol: as §9, §3
# [8] = system: PD-1; experiment: Flow cytometry of PD-1 expressing CD45+ cells in 4T1 mammary carcinoma; format: in vivo, mouse
# Protocol: as §9, §3, §4, §5, §6
# [9] = system: CCR5; experiment: Flow cytometry of CCR5 expression in the tumor site; format: in vivo, mouse
# Protocol: as §2, §3, §4, §7
# as §5, with “needed. […]” for “needed.”
# [10] = system: CD45+CD4+CD25+FoxP3+ Treg cells; experiment: Flow cytometry of Treg cells in B16F10Luc tumors; format: in vivo, mouse
# Protocol: as §2, §3, §4, §5, §6
# [11] = system: B16F10 melanoma cells; experiment: Tumor growth of B16F10 melanoma in Rj:NMRI-nu nude mice under ITPP treatment; format: in vivo, mouse; settings: ITPP 1.5 g/kg intraperitoneally, day 23, versus controls
# Protocol: as §1, §2, §3
# [12] = system: M2 (CD45+CD11c+CD206+) macrophages; experiment: Flow cytometry of M2 macrophages in 4T1 mammary carcinoma; format: in vivo, mouse
# Protocol: as §9, §3, §4, §5, §6
# [13] = system: PD-L1; experiment: Flow cytometry of PD-L1 expression in tumor cell populations; format: in vivo, mouse
# Protocol: as §2, §3, §4, §7, §5, §8
# [14] = system: activated NK cells; experiment: Flow cytometry of activated NK cells in 4T1 mammary carcinoma; format: in vivo, mouse; settings: 4T1 cells bearing mice
# Protocol: as §9, §3, §4, §5, §6
# [15] = system: M1 (CD45+CD11c+CD206−) macrophages; experiment: Flow cytometry of M1 macrophages in B16F10 Luc melanoma; format: in vivo, mouse
# Protocol: as §2, §3, §4, §5, §6
# [16] = system: PD-L2; experiment: Flow cytometry of PD-L2 expression in tumor cell populations; format: in vivo, mouse; settings: for reduction of the expression of PD-L2: compared with PD-L1
# Protocol: as §2, §3, §4, §7, §5, §8
# [17] = system: CTLA-4; experiment: Flow cytometry of CTLA-4 expression among CD45+ cells; format: in vivo, mouse
# Protocol: as §3, §4, §5
# as §8, with “We used anti-mouse Foxp3 staining set PE (eBioscience) for Foxp3 staining.” left out
# [18] = system: NK cells; experiment: Immunocytochemical labelling of NK cell infiltrate in B16F10 Luc tumors; format: in vivo, mouse; settings: B16F10 Luc tumors extracted on day 23; non-treated: NK cells stuck in the vessels
# Protocol: as §2, §3
# Tumor tissues were embedded in tissue freezing medium (Tissue-Tek; Sakura) and snap frozen in liquid nitrogen. Tumor cryosections were fixed and stained with mouse anti-CD31 (rat monoclonal IgG2a; eBiosciences), anti-CD49b (Rat IgM; BD Pharmingen) or anti-Firefly Luciferase (Rabbit IgG; Abcam) before tetramethyl rhodamine isothiocyanate or fluorescein isothiocyanate secondary antibodies were added. Nuclei were stained with bisbenzimide H 33258 (Sigma-Aldrich).
# [19] = system: NK cells; experiment: Flow cytometry of NK cells in B16F10Luc tumors, NRj:NMRI nude mice; format: in vivo, mouse; settings: B16F10-Luc tumors in nude mice
# Protocol: as §2, §3, §4, §5, §6
# [20] = system: CX3CR1; experiment: Flow cytometry of CX3CR1 expression in the tumor site; format: in vivo, mouse; settings: endothelial enriched cell population
# Protocol: as §2, §3, §4, §7, §5
# [21] = system: cells; settings: cited from earlier work
# [22] = system: CD31+ endothelial cells; experiment: Flow cytometry of CD31+ endothelial cells in B16F10Luc melanoma; format: in vivo, mouse; settings: treated versus non-treated tumors
# Protocol: as §2, §3, §4, §5, §6
# [23] = system: CD45+CD4+CCR4+ Th2 cells; experiment: Flow cytometry of Th2 cells in B16F10 Luc melanoma; format: in vivo, mouse
# Protocol: as §2, §3, §4, §5, §6
# [24] = system: M2 (CD45+CD11c+CD206+) macrophages; experiment: Flow cytometry of M2 macrophages in B16F10Luc melanoma; format: in vivo, mouse; settings: melanoma tumor site
# Protocol: as §2, §3, §4, §5, §6
# [25] = system: PD-1; experiment: Flow cytometry of PD-1 expressing CD45+ cells in B16F10 melanoma; format: in vivo, mouse
# Protocol: as §2, §3, §4, §5, §6
# [26] = system: CD47; experiment: Flow cytometry of CD47 expression in B16F10 tumors; format: in vivo, mouse; settings: tumor B16F10 melanoma cells
# Protocol: as §2, §3, §4, §5, §6
# [27] = system: CCR10; experiment: Flow cytometry of CCR10 expression in the tumor site; format: in vivo, mouse
# Protocol: as §2, §3, §4, §7, §5, §8
# [28] = system: CD45+CD11b+Gr1+ MDSCs; experiment: Flow cytometry of MDSCs in B16F10 Luc melanoma; format: in vivo, mouse
# Protocol: as §2, §3, §4, §5, §6
# [29] = system: NK cells; experiment: Flow cytometry of NK cells in B16F10Luc tumors, C57BL6 mice; format: in vivo, mouse
# Protocol: as §2, §3, §4, §5, §8
# [30] = CD31+ endothelial cells of the tumor
structure (smiles),measurement,setting,value
"O=P1(O)OC2C3OP(=O)(O)OP(=O)(O)OC3C3OP(=O)(O)OP(=O)(O)OC3C2OP(=O)(O)O1 (centres unmarked) [ITPP, myo-inositol tris pyrophosphate]",tumor size,"[1]; B16F10 melanoma in normal C57BL6 mice, ITPP 1.5 g/kg intraperitoneally, versus controls",reduction of the tumor size; also recorded: half size of the controls
same,tumor growth,"[1]; melanoma cells, treatments stopped on day 21",50%
same,proportion of immune cells (CD45+) in the tumor,[2],higher
same,toxicity for the animals,[3],not to be toxic
same,CXCR4 expression,[4]; CD45+ cells,not affected
same,CXCR4 expression,[4]; endothelial enriched cell population,not affected
same,cells expressing CXCR4,[4]; tumor cells,strongly reduced
same,Treg cell numbers,[5],reducing effect; also recorded: reduced
same,CCR7 expression,[6],total reduction
same,mammary carcinoma reduction,"[7]; 4T1, day 31, after arrest of treatment on day 21",up to 50%
same,tumor size,"[7]; 4T1 mammary carcinoma in BALB/c-by mice, ITPP 1.5 g/kg intraperitoneally, day 31, versus controls",reduction of the tumor size; also recorded: half size of the controls
same,CD45+PD-1+ cells among whole tumor populations,[8],increase; also recorded: enriched
same,CCR5 expression,[9]; CD45+ population,inverse effect
same,CCR5 expression,[9]; tumor cells,radical effect
same,proportions of CD45+CD4+CD25+FoxP3+ Treg cells,[10],very significantly decreased; also recorded: reduced
same,tumor size,[11],reduction of the tumor size; also recorded: half size of the controls
same,proportion of M2 (CD45+CD11c+CD206+) macrophages,[12],reduced; also recorded: decreased
same,expression of PD-L1,[13]; [30],considerably reduced and less
same,expression of PD-L1,[13]; immune CD45+ cell population,strongly reduced
same,expression of PD-L1,[13]; separated CD45− cells,clear reduction
same,expression of PD-L1,[13]; whole tumor cell populations,clear reduction
same,recruitment of activated NK cells,[14],higher recruitment
same,numbers of macrophages expressing the M1 (CD45+CD11c+CD206−) phenotype,[15],tendency to increase; also recorded: tended to increase
same,expression of PD-L2,[16]; [30],reduced and less
same,expression of PD-L2,[16]; immune CD45+ cell population,strongly reduced
same,reduction of the expression of PD-L2,[16]; separated CD45− cells,to a lesser extent
same,reduction of the expression of PD-L2,[16]; whole tumor cell populations,to a lesser extent
same,CTLA-4 expression,[17],No significant change
same,NK cell (CD49b+) infiltrate in the tumor,[18],infiltrated the tumor mass
same,proportions of NK cells found in the tumor before and after ITPP treatments (R),[19],2.25
same,expression of the fractalkine receptor CX3CR1,[20],induced expression
same,toxicity for cells treated separately,[21],not to be toxic
same,proportion of CD31+ endothelial cells,[22],higher; also recorded: increased
same,proportion of Th2 cells (CD45+CD4+CCR4+) in the tumor site,[23],decrease; also recorded: reduced
same,proportion of M2 (CD45+CD11c+CD206+) macrophages,[24],reduced; also recorded: decreased
same,CD45+PD-1+ cells among whole tumor populations,[25],increase; also recorded: enriched
same,intensity of CD47 expression,[26],reduced
same,cells expressing CCR10,[27]; B16F10 cells,reduced
same,increase of cells expressing CCR10 (R),[27]; endothelial cells enriched population,2
same,increase of cells expressing CCR10 (R),[27]; immune cells (CD45+),10
same,MDSCs proportion in the tumor,[28],reduced
same,proportions of NK cells found in the tumor before and after ITPP treatments (R),[29]; B16F10-Luc tumors in normal C57Bl6 mice,2.25
same,number of NK cells in the tumor site,"[29]; CD45+CD49+ NK cells, B16F10Luc tumors, C57BL6 mice",doubled
same,numbers of activated (CD45+CD49b+CD226+) NK cells,"[29]; melanoma bearing mice, after ITPP treatment",increase
